Assay [1] has as its system 17 highly resistant MRSA strains. The assay is described as follows: In vitro activity: minimum inhibitory concentration (MIC) by the agar dilution method in Mueller Hinton agar, 17 highly resistant MRSA strains. The class given is cell-based, Methicillin resistant Staphylococcus aureus (MRSA). The conditions noted are these: inoculum =10^5 CFU/spot. How it is done:
In vitro activity was determined by minimum inhibitory concentration (MIC) by the agar dilution method in Mueller Hinton agar inoculum =10^5 CFU/spot.
In general terms: Agar dilution tests growth on a series of plates holding different concentrations.

A further assay has as its system MRSA. The note with it: alone; in words; cited from earlier work.
The test system of another assay is β-lactamase. The note with it: in words; cited from earlier work.
Assay [2] deals with Gram-positive and Gram negative pathogens. The conditions noted are these: carbapenems alone; in words; cited from earlier work.

In brackets after ≈: the same amount, converted by molar mass.

In general, MIC50 refers to an inhibitory concentration at the 50% level, which refers to growth in some studies and to a panel of isolates in others. Low readings indicate greater potency, high ones weaker potency. Usually MIC90 stands for the lowest concentration that inhibits either 90% of growth or 90% of the strains tested, depending on the study. Read a low MIC90 as greater potency. `O=C(C[n+]1ccc(CN2CC/C(=C\C3=C(C(=O)[O-])N4C(=O)[C@@H](NC(=O)CSc5cc(Cl)ccc5Cl)[C@H]4SC3)C2=O)cc1)Nc1ccc(O)c(F)c1` [Ex. 10]: the MIC50 in assay [1] (Table 1, substance alone) was over 16 µg/mL; in assay [1] (Table 2, substance alone) it was over 16 µg/mL. Further, the MIC90 is over 16 µg/mL in assay [1] (Table 1, substance alone) and over 16 µg/mL in assay [1] (Table 2, substance alone).
Consider `Cl.O=C(CSc1ccccc1)N[C@@H]1C(=O)N2C(C(=O)O)=C(/C=C3\CCN([C@@H]4CCNC4)C3=O)CS[C@H]12` [Ex. 11, (E)-(6R,7R)-8-Oxo-3-[(R)-2-oxo-[1,3']bipyrrolidinyl-3-ylidenemethyl]-7-(2-phenylsulfanyl-acetylamino)-5-thia-1-aza-bicyclo[4.2.0]oct-2-ene-2-carboxylic acid hydrochloride (1:1)], for which, in assay [1] (Table 1, substance alone), the MIC50 came to 16 µg/mL and the MIC90 is over 16 µg/mL. In assay [1] (Table 2, substance alone), this compound displayed an MIC50 of 16 µg/mL and an MIC90 of over 16 µg/mL.
In the case of `O=C(CSc1ccc2ccccc2c1)N[C@@H]1C(=O)N2C(C(=O)O)=C(/C=C3\CCN(C4CC4)C3=O)CS[C@H]12.c1c[nH]cn1` [Ex. 12, (E)-(6R,7R)-3-(1-Cyclopropyl-2-oxo-pyrrolidin-3-ylidenemethyl)-7-[2-(naphthalen-2-ylsulfanyl)-acetylamino]-8-oxo-5-thia-1-aza-bicyclo[4.2.0]oct-2-ene-2-carboxylic acid imidazole salt (1:1)], in assay [1] (Table 1, substance alone), the MIC50 amounted to 16 µg/mL and the MIC90 is over 16 µg/mL. Besides, in assay [1] (Table 2, substance alone), the MIC50 worked out at 16 µg/mL and the MIC90 is over 16 µg/mL.
Turning to `O=C(CSc1ccc2ccccc2c1)N[C@@H]1C(=O)N2C(C(=O)[O-])=C(/C=C3\CCN(c4ccc(O)cc4)C3=O)CS[C@H]12.[Na+]` [Ex. 13, (E)-(6R,7R)-3-[1-(4-Hydroxy-phenyl)-2-oxo-pyrrolidin-3-ylidenemethyl]-7-[2-(naphthalene-2-ylsulfanyl)-acetylamino]-8-oxo-5-thia-1-aza-bicyclo[4.2.0]oct-2-ene-2-carboxylic acid sodium salt (1:1)], in assay [1] (Table 1, substance alone), the MIC50 was 16 µg/mL and the MIC90 was over 16 µg/mL.
The like results for `NS(=O)(=O)c1ccc(CN2CC/C(=C\C3=C(C(=O)O)N4C(=O)[C@@H](NC(=O)CSc5ccccc5)[C@H]4SC3)C2=O)cc1` [Ex. 14] were, in that order, 16 µg/mL (≈ 26 µM) and over 16 µg/mL.
In assay [1] (Table 1, substance alone), `C[C@@H](O)[C@H]1C(=O)N2C(C(=O)O)=C(SCCN=CN)C[C@H]12` [Imipenem] showed an MIC50 of over 16 µg/mL and an MIC90 of over 16 µg/mL. Also, in the assay with MRSA, the “activity against MRSA” value is “do not have good activity against MRSA”. Moreover, the β-lactamase inhibition entry with β-lactamase is “good β-lactamase inhibitors”. Further, the “spectrum of antibacterial activity” value in assay [2] was “broad spectrum of antibacterial activity”.
In assay [1] (Table 1, substance alone), `C[C@@H](O)[C@H]1C(=O)N2C(C(=O)O)=C(S[C@@H]3CN[C@H](C(=O)N(C)C)C3)[C@H](C)[C@H]12` [Meropenem] returned an MIC50 of over 16 µg/mL and an MIC90 of over 16 µg/mL. In addition, the “activity against MRSA” value in the assay with MRSA was “do not have good activity against MRSA”. For the same compound, in the assay on β-lactamase, the β-lactamase inhibition result was “good β-lactamase inhibitors”. Also, the “spectrum of antibacterial activity” value in assay [2] is reported as “broad spectrum of antibacterial activity”.
Consider `C[C@]1(/C=C\C#N)[C@H](C(=O)[O-])N2C(=O)C[C@H]2S1(=O)=O.[Na+]` [compound B, sodium-(Z)-(2S,3S ,R)-3-(2-cyanoethenyl)-3-methyl-4,4,7-trioxo-4-thia-1-aza-bicyclo[3.2.0]heptane-2-carboxylate, reference compound], for which, in assay [1] (Table 2, substance alone), the MIC50 is over 16 µg/mL, the MIC90 was over 16 µg/mL and the “range of MIC” value is over 16 µg/mL.
